pIC50: −log10 of the molar value.
How the values were obtained:
[1] = test system: MYC mRNA in MV4:11 (AML) cells; assay: cMyc RNA quantification assay (QuantiGene) in MV4:11 cells; type: cell-based; conditions: Homo sapiens, 4 h, QuantiGene 2.0
Method in brief: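 Cells exposed to a range of compound concentrations for 4 h, then MYC mRNA quantified by QuantiGene 2.0 branched-DNA assay. Biological duplicates averaged and normalized to DMSO vehicle, expressed as percent MYC mRNA.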

[2] = test system: IL-6 secretion in THP-1 cells; assay: Cell-based IL-6 quantification assay (ELISA, Mesoscale) in LPS-treated THP-1 cells; conditions: Homo sapiens, LPS 4 μg/mL, 16 h, ELISA value/CellTiter-Glo ratio
Method in brief: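 THP-1 cells (100,000/well, RPMI-10% FBS) stimulated with 4 μg/mL LPS and incubated 16 h with compound at various concentrations. Supernatant IL-6 measured by Mesoscale ELISA, normalized to CellTiter-Glo cell content; % inhibition of secretion from the ratio.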

[3] = target: T1, BRD4 (BD1) (Homo sapiens, UniProt O60885); assay: BRD4 AlphaLisa binding assay; conditions: BRD4 (BD1) 30 nM, biotinylated H4-tetraacetyl peptide 200 nM; read-out: BRD4 AlphaLisa
T1 construct: His; made in house
Method in brief: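 BRD4 (BD1) (30 nM final) with peptide (200 nM final) in 40 mM HEPES pH 7.0, 40 mM NaCl, 1 mM DTT, 0.01% BSA, 0.008% Brij-35, 1.2% DMSO, 20 min at RT with compound.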

| SMILES | pIC50 [1] | pIC50 [2] | pIC50 [3] |
| --- | --- | --- | --- |
| Cc1nnc2n1-c1ccc(-c3cn[nH]c3)cc1N(c1ccc(C#N)cc1)C[C@H]2C [Compound 80, (R)-4-(1,4-dimethyl-8-(1H-pyrazol-4-yl)-4H-benzo[b][1,2,4]triazolo[4,3-d][1,4]diazepin-6(5H)-yl)benzonitrile] | > 7.00 | > 7.00 | > 7.00 |
| Cc1nnc2n1-c1ccc(-c3cnn(CC(N)=O)c3)cc1N(c1ccc(C#N)cc1)C[C@H]2C [Compound 81, (R)-2-(4-(6-(4-cyanophenyl)-1,4-dimethyl-5,6-dihydro-4H-benzo[b][1,2,4]triazolo[4,3-d][1,4]diazepin-8-yl)-1H-pyrazol-1-yl)acetamide] | 5.00 to 6.00 | < 6.00 | > 7.00 |
| Cc1nnc2n1-c1ccc(-c3ccc(=O)[nH]c3)cc1N(c1ccc(Cl)cn1)C[C@H]2C [Compound 82, (R)-5-(6-(5-chloropyridin-2-yl)-1,4-dimethyl-5,6-dihydro-4H-benzo[b][1,2,4]triazolo[4,3-d][1,4]diazepin-8-yl)pyridin-2(1H)-one] | 6.00 to 7.00 | < 6.00 | 6.00 to 7.00 |
| Cc1nnc2n1-c1ccc(-c3cnc(N)cn3)cc1N(c1ccc(Cl)cn1)C[C@H]2C [Compound 83, (R)-5-(6-(5-chloropyridin-2-yl)-1,4-dimethyl-5,6-dihydro-4H-benzo[b][1,2,4]triazolo[4,3-d][1,4]diazepin-8-yl)pyrazin-2-amine] | > 7.00 | > 7.00 | > 7.00 |
| COc1ccc2c(n1)N(c1ccc(C#N)cc1)CC(C)c1nnc(C)n1-2 (stereo not drawn) [Compound 84, 4-(8-methoxy-1,4-dimethyl-4H-pyrido[2,3-b][1,2,4]triazolo[4,3-d][1,4]diazepin-6(5H)-yl)benzonitrile] | 5.00 to 6.00 | < 6.00 | < 6.30 |
| Cc1[nH]c(=O)ccc1-c1ccc2c(c1)N(c1ccc(Cl)cc1)C[C@@H](C)c1nnc(C)n1-2 [Compound 85, (R)-5-(6-(4-chlorophenyl)-1,4-dimethyl-5,6-dihydro-4H-benzo[b][1,2,4]triazolo[4,3-d][1,4]diazepin-8-yl)-6-methylpyridin-2(1H)-one] | 6.00 to 7.00 | < 6.00 | 6.00 to 7.00 |

— patent US9422292B2, “Bromodomain inhibitors and uses thereof” (Constellation Pharmaceuticals, Inc., priority 2011, dated 2016)
